Assays:
[1] = test system: myofibroblast formation; conditions: animal studies of capsular contracture with breast implants; cited from earlier work
[2] = test system: fibrinolysis; test: tranexamic acid concentrations effective against fibrinolysis; conditions: relative to doses used in the non-GLP acute porcine study
[3] = given preoperatively

With `O=S(=O)([O-])CCS.[Na+]` [MESNA, sodium 2-mercaptoethane sulfonate] as the compound, how does the myofibroblast formation [1] read?
The myofibroblast formation was “diminish myofibroblast formation”.

For `NC[C@H]1CC[C@H](C(=O)O)CC1` [tranexamic acid], which “dose effective in reversing fibrinolysis” value [2] is on record?
The value was “one tenth of the doses used in the non-GLP acute porcine study”.

And the “time to reach plasma concentrations” value [3]?
Its value is 5 to 15 min.

Reference: US11191878B2, “Kits for local delivery of water soluble agents and methods of use” (priority 2017, dated 2021)
